According to patent US12617783B2, “Heterocyclic GLP-1R agonists” (BIOMEA FUSION, INC., priority 2024, dated 2026):

Each compound was assayed against T1, human GLP-1R (Homo sapiens, UniProt P43220) (assay: GLP-1R cAMP assay (Example B1a, HTRF, 30 min at room temperature)). Settings: cAMP accumulation in HEK293 expressing human GLP-1R, no BETP, 30 min room temperature (Method B1a, compounds ID 1-609), Table 1; read-out: EC50.
T1 construct: host or cells: HEK293
Assay type: cell-based
Procedure: Assay was carried out with HEK293 expressing human GLP-1R using HTRF assay, developed by Wuxi Apptec. The method is a competitive assay between native cAMP produced by the cells and exogenous cAMP labeled with a proprietary dye d2. The tracer binding is visualized by a mAb anti-cAMP labeled with Cryptate. The signal (i.e. energy transfer) is inversely proportional to the concentration of CAMP in either standard or experimental sample. Compounds were tested in the absence of BETP. Ten microliter of cell suspension in assay buffer (5 mM HEPES, 500 μM IBMX, 0.1% BSA) were added to each well (1,000 cells per well) in a low volume 384-well plate for the assay. Serially diluted compounds were added in 100 nL volume to duplicate wells, by Labcyte Echo. GLP-1 (7-37) was used as positive control. Assay plate was incubated for 30 minutes at room temperature. Stock of cAMP Detection Solution was prepared by mixing 38 parts of cAMP lysis buffer, 1 part of cAMP-D2, 1 part of anti-cAMP cryptate reagent (Cisbio #62AM4PEJ). Ten microliter of the cAMP Detection Solution was added to each well, and the assay plate was incubated for 1 hour at room temperature in the dark. Plates were read on Envision plate reader. The data were analyzed by ScreenUltra in Dotmatics, with % activation expressed using following formula: (Well data−negative control)/(postive control−negative control)*100. Dose response curves were plotted and EC50 values calculated by non-linear regression using 4-parameter fit.

T1 sequence (P43220 24-463): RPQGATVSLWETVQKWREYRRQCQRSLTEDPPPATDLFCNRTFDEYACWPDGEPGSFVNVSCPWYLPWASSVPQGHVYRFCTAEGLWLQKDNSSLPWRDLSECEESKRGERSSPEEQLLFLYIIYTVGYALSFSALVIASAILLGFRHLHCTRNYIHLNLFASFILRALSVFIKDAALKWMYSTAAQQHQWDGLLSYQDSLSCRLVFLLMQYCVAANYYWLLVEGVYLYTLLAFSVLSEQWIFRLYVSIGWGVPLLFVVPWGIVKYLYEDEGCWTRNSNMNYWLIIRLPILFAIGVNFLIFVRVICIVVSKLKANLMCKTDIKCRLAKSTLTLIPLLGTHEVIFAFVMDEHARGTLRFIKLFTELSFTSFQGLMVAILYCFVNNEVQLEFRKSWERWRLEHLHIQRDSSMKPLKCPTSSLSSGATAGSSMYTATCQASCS

| EC50 [nM] | SMILES |
| --- | --- |
| 117 | Cc1cc(-n2nc3c(c2-n2ccn(-c4ccc5c(cnn5C)c4F)c2=O)[C@@H]2CC[C@H](C3)N2C(=O)c2cc3cc(C4CCOC(C)(C)C4)ncc3n2[C@@]2(c3noc(=O)[nH]3)C[C@@H]2C)cc(C)c1F (stereo partly drawn) [Compound 209, 3-((1S,2S)-1-(5-(2,2-dimethyltetrahydro-2H-pyran-4-yl)-2-((4S,7R)-3-(3-(4-fluoro-1-methyl-1H-indazol-5-yl)-2-oxo-2,3-dihydro-1H-imidazol-1-yl)-2-(4-fluoro-3,5-dimethylphenyl)-2,4,5,6,7,8-hexahydro-4,7-epiminocyclohepta [c]pyrazole-9-carbonyl)-1H-pyrrolo[2,3-c]pyridin-1-yl)-2-methylcyclopropyl)-1,2,4-oxadiazol-5 (4H)-one] |
| 167 | Cc1cc(-n2nc3c(c2-n2ccn(-c4ccc5c(cnn5C)c4F)c2=O)[C@@H]2CC[C@H](C3)N2C(=O)c2cc3cc(N4CCOC(C)(C)C4)ccc3n2[C@@]2(c3noc(=O)[nH]3)C[C@@H]2C)cc(C)c1F [Compound 229, 3-((1S,2S)-1-(5-(2,2-dimethylmorpholino)-2-((4S,7R)-3-(3-(4-fluoro-1-methyl-1H-indazol-5-yl)-2-oxo-2,3-dihydro-1H-imidazol-1-yl)-2-(4-fluoro-3,5-dimethylphenyl)-2,4,5,6,7,8-hexahydro-4,7-epiminocyclohepta [c]pyrazole-9-carbonyl)-1H-indol-1-yl)-2-methylcyclopropyl)-1,2,4-oxadiazol-5 (4H)-one] |
| 269 | CCc1nccc(-c2ccc3c(c2)cc(C(=O)N2[C@@H]4CC[C@H]2c2c(nn(-c5cc(C)c(F)c(C)c5)c2-n2ccn(-c5ccc6c(cnn6C)c5F)c2=O)C4)n3[C@@]2(c3noc(=O)[nH]3)C[C@@H]2C)c1C [Compound 219, 3-[(1S,2S)-1-[5-(2-ethyl-3-methyl-4-pyridyl)-2-[(1S,8R)-4-(4-fluoro-3,5-dimethyl-phenyl)-3-[3-(4-fluoro-1-methyl-indazol-5-yl)-2-oxo-imidazol-1-yl]-4,5,11-triazatricyclo[6.2.1.02,6]undeca-2,5-diene-11-carbonyl]indol-1-yl]-2-methyl-cyclopropyl]-4H-1,2,4-oxadiazol-5-one] |
| 757 | CC(=O)NC[C@]1(n2c(C(=O)N3[C@@H]4CC[C@H]3c3c(nn(-c5cc(C)c(F)c(C)c5)c3-n3ccn(-c5ccc6c(cnn6C)c5F)c3=O)C4)cc3cc([C@H]4CCOC(C)(C)C4)ccc32)C[C@@H]1C [Compound 243, N-[[(1S,2S)-1-[5-[(4S)-2,2-dimethyltetrahydropyran-4-yl]-2-[(1S,8R)-4-(4-fluoro-3,5-dimethyl-phenyl)-3-[3-(4-fluoro-1-methyl-indazol-5-yl)-2-oxo-imidazol-1-yl]-4,5,11-triazatricyclo[6.2.1.02,6]undeca-2,5-diene-11-carbonyl]indol-1-yl]-2-methyl-cyclopropyl]methyl]acetamide] |
| > 10000 | Cc1cc(-n2nc3c(c2-n2ccn(-c4ccc5c(cnn5C)c4F)c2=O)[C@@H]2CC[C@H](C3)N2C(=O)c2cc3cc(C4CCOC5(COC5)C4)ccc3n2C2(c3noc(=O)[nH]3)CC2)cc(C)c1F (stereo partly drawn) [Compound 136, 3-[1-[5-(2,5-dioxaspiro[3.5]nonan-8-yl)-2-[(1S,8R)-4-(4-fluoro-3,5-dimethyl-phenyl)-3-[3-(4-fluoro-1-methyl-indazol-5-yl)-2-oxo-imidazol-1-yl]-4,5,11-triazatricyclo[6.2.1.02,6]undeca-2,5-diene-11-carbonyl]indol-1-yl]cyclopropyl]-4H-1,2,4-oxadiazol-5-one] |
| 81.2 | Cc1cc(-n2nc3c(c2-n2ccn(-c4ccc5c(cnn5C)c4F)c2=O)[C@@H]2CC[C@H](C3)N2C(=O)c2cc3cc(C4CCOC5(CC5)C4)ccc3n2[C@@]2(c3noc(=O)[nH]3)C[C@@H]2C)cc(C)c1F (stereo partly drawn) [Compound 213, 3-((1S,2S)-1-(2-((4S,7R)-3-(3-(4-fluoro-1-methyl-1H-indazol-5-yl)-2-oxo-2,3-dihydro-1H-imidazol-1-yl)-2-(4-fluoro-3,5-dimethylphenyl)-2,4,5,6,7,8-hexahydro-4,7-epiminocyclohepta [c]pyrazole-9-carbonyl)-5-(4-oxaspiro[2.5]octan-7-yl)-1H-indol-1-yl)-2-methylcyclopropyl)-1,2,4-oxadiazol-5 (4H)-one] |
| 617 | Cc1cc(-n2nc3c(c2-n2ccn(-c4ccc5c(cnn5C)c4F)c2=O)[C@@H]2CC[C@H](CC3)N2C(=O)c2cc3cc([C@H]4CCOC(C)(C)C4)ccc3n2[C@@]2(c3noc(=O)[nH]3)C[C@@H]2C)cc(C)c1F [Compound 523, 3-[(1S,2S)-1-[5-[(4S)-2,2-dimethyltetrahydropyran-4-yl]-2-[(1S,9R)-4-(4-fluoro-3,5-dimethyl-phenyl)-3-[3-(4-fluoro-1-methyl-indazol-5-yl)-2-oxo-imidazol-1-yl]-4,5,12-triazatricyclo[7.2.1.02,6]dodeca-2,5-diene-12-carbonyl]indol-1-yl]-2-methyl-cyclopropyl]-4H-1,2,4-oxadiazol-5-one] |
| 129 | Cc1cc(-n2nc3c(c2-n2ccn(-c4ccc5c(cnn5C)c4F)c2=O)[C@@H]2COC[C@H](C3)N2C(=O)c2cc3cc(C4CCOCC4)ccc3n2[C@@]2(c3noc(=O)[nH]3)C[C@@H]2C)cc(C)c1F [Compound 221, 3-((1S,2S)-1-(2-((4R,8S)-3-(3-(4-fluoro-1-methyl-1H-indazol-5-yl)-2-oxo-2,3-dihydro-1H-imidazol-1-yl)-2-(4-fluoro-3,5-dimethylphenyl)-2,4,5,7,8,9-hexahydro-4,8-epiminooxocino [5,4-c]pyrazole-10-carbonyl)-5-(tetrahydro-2H-pyran-4-yl)-1H-indol-1-yl)-2-methylcyclopropyl)-1,2,4-oxadiazol-5 (4H)-one] |
| 34.1 | Cc1cc(-n2nc3c(c2-n2ccn(-c4ccc5c(cnn5C)c4F)c2=O)[C@@H]2COC[C@H](C3)N2C(=O)c2cc3cc([C@H]4CCOC(C)(C)C4)ncc3n2[C@@]2(c3noc(=O)[nH]3)C[C@@H]2C)cc(C)c1F [Compound 225, 3-((1S,2S)-1-(5-((S)-2,2-dimethyltetrahydro-2H-pyran-4-yl)-2-((4R,8S)-3-(3-(4-fluoro-1-methyl-1H-indazol-5-yl)-2-oxo-2,3-dihydro-1H-imidazol-1-yl)-2-(4-fluoro-3,5-dimethylphenyl)-2,4,5,7,8,9-hexahydro-4,8-epiminooxocino [5,4-c]pyrazole-10-carbonyl)-1H-pyrrolo[2,3-c]pyridin-1-yl)-2-methylcyclopropyl)-1,2,4-oxadiazol-5 (4H)-one] |
| 70 | Cc1cc(-n2nc3c(c2-n2ccn(-c4ccc5[nH]ncc5c4F)c2=O)[C@@H]2CC[C@H](C3)N2C(=O)c2cc3cc([C@H]4CCOC5(CC5)C4)ccc3n2[C@@]2(c3noc(=O)[nH]3)C[C@@H]2C)cc(C)c1F [Compound 436, 3-((1S,2S)-1-(2-((4S,7R)-3-(3-(4-fluoro-1H-indazol-5-yl)-2-oxo-2,3-dihydro-1H-imidazol-1-yl)-2-(4-fluoro-3,5-dimethylphenyl)-2,4,5,6,7,8-hexahydro-4,7-epiminocyclohepta [c]pyrazole-9-carbonyl)-5-((S)-4-oxaspiro[2.5]octan-7-yl)-1H-indol-1-yl)-2-methylcyclopropyl)-1,2,4-oxadiazol-5 (4H)-one] |
| ≥ 10000 | Cc1cc(-n2nc3c(c2-n2ccn(-c4ccc5c(cnn5C)c4F)c2=O)CCN(C(=O)c2cc4cc([C@H]5CCOC(C)(C)C5)ccc4n2[C@@]2(c4noc(=O)[nH]4)C[C@@H]2C)CC3)cc(C)c1F [Compound 421, 3-[(1S,2S)-1-[5-[(4S)-2,2-dimethyltetrahydropyran-4-yl]-2-[2-(4-fluoro-3,5-dimethyl-phenyl)-3-[3-(4-fluoro-1-methyl-indazol-5-yl)-2-oxo-imidazol-1-yl]-4,5,7,8-tetrahydropyrazolo[3,4-d]azepine-6-carbonyl]indol-1-yl]-2-methyl-cyclopropyl]-4H-1,2,4-oxadiazol-5-one] |
| 600 | Cc1cc(-n2nc3c(c2-n2ccn(-c4ccc5[nH]ncc5c4F)c2=O)CN(C(=O)c2cc4cc([C@H]5CCOC(C)(C)C5)ccc4n2[C@@]2(c4noc(=O)[nH]4)C[C@@H]2C)CCC3)cc(C)c1F [Compound 505, 3-[(1S,2S)-1-[5-[(4S)-2,2-dimethyltetrahydropyran-4-yl]-2-[2-(4-fluoro-3,5-dimethyl-phenyl)-3-[3-(4-fluoro-1H-indazol-5-yl)-2-oxo-imidazol-1-yl]-4,6,7,8-tetrahydropyrazolo[4,3-c]azepine-5-carbonyl]indol-1-yl]-2-methyl-cyclopropyl]-4H-1,2,4-oxadiazol-5-one] |
| 14.7 | Cc1cc(-n2nc3c(c2-n2ccn(-c4ccc5cnncc5c4F)c2=O)[C@@H]2CC[C@H](C3)N2C(=O)c2cc3cc([C@H]4CCOC(C)(C)C4)ccc3n2[C@@]2(c3noc(=O)[nH]3)C[C@@H]2C)cc(C)c1F [Compound 410, 3-((1S,2S)-1-(5-((S)-2,2-dimethyltetrahydro-2H-pyran-4-yl)-2-((4S,7R)-2-(4-fluoro-3,5-dimethylphenyl)-3-(3-(5-fluorophthalazin-6-yl)-2-oxo-2,3-dihydro-1H-imidazol-1-yl)-2,4,5,6,7,8-hexahydro-4,7-epiminocyclohepta [c]pyrazole-9-carbonyl)-1H-indol-1-yl)-2-methylcyclopropyl)-1,2,4-oxadiazol-5 (4H)-one] |
